Assay results: patent publication US7259004B1, “Endophytic streptomycetes from higher plants with biological activity” (Montana State University, priority 2002, dated 2007)

Test system: M. tuberculosis MDR-P (drug resistant)
Test: microbe, parasite or virus in culture
Assay type: cell-based, Mycobacterium tuberculosis
Details: for IC50 M. tuberculosis MDR-P (drug resistant): 7H11 agar with 10% OADC

| Compound | IC50 M. tuberculosis MDR-P (drug resistant) | IC50 (Mycobacterium tuberculosis, read-out: IC50 M. tuberculosis MDR-P (drug resistant)) |
| --- | --- | --- |
| munumbicin C | >125 micrograms/ml |  |
| munumbicin B | 10 micrograms/ml |  |
| CO[C@H]1/C=C/O[C@@]2(C)Oc3c(C)c(O)c4c(O)c(c(/C=N/N5CCN(C)CC5)c(O)c4c3C2=O)NC(=O)/C(C)=C\C=C\[C@H](C)[C@H](O)[C@@H](C)[C@@H](O)[C@@H](C)[C@H](OC(C)=O)[C@@H]1C [Rifampicin, reference compound] |  | > 150 µg/mL |
